Among the data in patent US20080004271A1, “Inhibitors of TNFalpha, PDE4 and B-RAF, compositions thereof and methods of use therewith” (priority 2006, published 2008) are melting point and IC50 values, retold here.

One data set has as its target T1, V600E mutant B-RAF (Homo sapiens, UniProt P15056, V600E).
T1 construct: purchased Upstate
Kind of data set: V600E Mutant B-RAF 33P Assay. The format is biochemical.

Another data set concerns pMEK1/2 in A375 cells. As to the kind of experiment: A375 pMEK1/2 Meso Scale Assay. The format is cell-based. Conditions: Homo sapiens, A-375, 2 h; A375 pMEK1/2, about two hours incubation. As for the experimental part: On the afternoon of Day 1, cells are plated in a 96-well flat bottom cell culture plate at about 50,000 cells/well in a volume of 100 μl. On the morning of Day 2, serial dilutions of test compound(s) are added to the plate. The plate is incubated for about two hours at 37° C., […]. The plate is blocked about five minutes before the compound incubation step is completed by adding 150 μl/well of MSD (Meso Scale Discovery) blocking solution-A (prepared with 20 ml 1× Tris wash buffer (25 ml of 10× Tris buffer+225 ml deionized water) and 600 mg MSD blocker A) and incubating with vigorous shaking at room temperature for one hour. The plate is washed 4× with 1× Tris wash buffer.
Cells are harvested and lysates prepared by removing medium, washing 1× with ice-cold PBS (calcium and magnesium free), adding 50 μl/well Complete Tris buffer and incubating with shaking at 4° C. for one hour. Lysate samples (25 μl) are added to an MSD Multi-Spot plate and incubated with vigorous shaking at room temperature for two hours. The plate is washed 1× with Tris wash buffer.
25 μl/well of […] detection antibody (Anti-pMEK1/2 antibody; SULFO-TAG labeled, light sensitive) in 3 ml of cold antibody dilution buffer (1 ml blocking solution-A, 1.82 ml 1× Tris wash buffer, 150 μl 2% MSD blocker D-M and 30 μl 10% MSD blocker D-R) is added and the plate is incubated with vigorous shaking at room temperature in the dark for one hour. The plate is washed 1× with Tris wash buffer.
150 μl/well of 1× MSD Read buffer T (with surfactant) is added to the plate and the plate is read using a MSD Sector instrument.

In another data set the test system is A375 cells. As to the kind of experiment: Alamar Blue Viability Assay. The following applies: Homo sapiens, A-375, 72 h, 3 days. The format is cell-based. The method in brief: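 A375 cells (1,000/well) plated overnight, then treated in triplicate at 0.6–60 μM final, 0.2% DMSO, for 3 days at 37° C. Viability by Alamar Blue fluorescence (ex 530/em 590 nm, 4 h); percent of DMSO control used to plot IC50 curves.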
(In general: Resazurin is reduced to fluorescent resorufin, in cell work by metabolically active cells.)

Structures are written as SMILES.

T1 sequence (P15056 whole entry V600E): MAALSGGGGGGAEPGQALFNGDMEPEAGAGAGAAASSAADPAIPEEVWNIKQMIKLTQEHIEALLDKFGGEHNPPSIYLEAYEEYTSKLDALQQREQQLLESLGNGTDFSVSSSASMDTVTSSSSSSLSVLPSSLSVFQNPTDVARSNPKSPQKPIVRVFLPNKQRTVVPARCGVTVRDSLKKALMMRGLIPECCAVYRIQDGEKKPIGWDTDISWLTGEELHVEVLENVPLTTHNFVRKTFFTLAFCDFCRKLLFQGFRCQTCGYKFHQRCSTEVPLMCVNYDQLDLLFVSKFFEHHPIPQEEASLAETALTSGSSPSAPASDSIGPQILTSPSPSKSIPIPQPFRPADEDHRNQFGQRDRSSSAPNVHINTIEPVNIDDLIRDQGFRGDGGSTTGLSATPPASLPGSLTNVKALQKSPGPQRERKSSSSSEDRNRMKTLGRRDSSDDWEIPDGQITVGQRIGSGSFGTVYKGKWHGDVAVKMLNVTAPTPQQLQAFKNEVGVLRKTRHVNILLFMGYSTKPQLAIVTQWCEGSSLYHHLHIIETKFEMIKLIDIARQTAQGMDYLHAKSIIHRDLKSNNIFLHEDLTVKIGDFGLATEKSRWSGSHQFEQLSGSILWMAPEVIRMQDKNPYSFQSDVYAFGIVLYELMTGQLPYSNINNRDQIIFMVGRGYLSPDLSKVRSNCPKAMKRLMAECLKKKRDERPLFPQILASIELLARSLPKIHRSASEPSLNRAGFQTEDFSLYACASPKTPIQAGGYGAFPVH

For the molecule `NC(=O)c1sc2ncnc(-c3cc4c(c(OCc5ccccc5)c3)CCO4)c2c1N` [Example 5.2.140, 5-amino-4-(4-(benzyloxy)-2,3-dihydrobenzofuran-6-yl)thieno[2,3-d]pyrimidine-6-carboxamide], the melting point is 239 °C.
The same measure, in the same setting: in the case of `NC(=O)c1sc2ncnc(-c3cc(O)c4c(c3)OCC4)c2c1N` [Example 5.2.141, 5-amino-4-(4-hydroxy-2,3-dihydrobenzofuran-6-yl)thieno[2,3-d]pyrimidine-6-carboxamide] it was 285 °C; in that of `NC(=O)c1sc2ncnc(-c3cccc(NC(=O)Nc4ccncc4)c3)c2c1N` [Example 5.2.166, 5-amino-4-{3-[(4-pyridylamino)carbonylamino]phenyl}-thiopheno[2,3-d]pyrimidine-6-carboxamide], 177 to 179 °C.
In turn, `NC(=O)c1sc2ncnc(-c3cccc(NC(=O)Nc4cccnc4)c3)c2c1N` [Example 5.2.167, 5-amino-4-{3-[(3-pyridylamino)carbonylamino]phenyl}-thiopheno[2,3-d]pyrimidine-6-carboxamide] yielded a melting point of 199 to 200 °C.
The same measure, in the same setting: then `NC(=O)c1sc2ncnc(-c3cccc(NC(=O)Nc4cccc(C(F)(F)F)c4)c3)c2c1N` [Example 5.2.169, 5-amino-4-[3-({[3-(trifluoromethyl)phenyl]amino}-carbonylamino)phenyl]thiopheno[2,3-d]pyrimidine-6-carboxamide], with 201 to 203 °C.
As to `NC(=O)c1sc2ncnc(-c3cccc(NC(=O)Nc4ccccc4C(F)(F)F)c3)c2c1N` [Example 5.2.170, 5-amino-4-[3-({[2-(trifluoromethyl)phenyl]amino}-carbonylamino)phenyl]thiopheno[2,3-d]pyrimidine-6-carboxamide], the melting point was in the range of 172 to 175 °C.
As to `Cc1nc(-c2ccc(Cl)c(Cl)c2)c2c(N)c(C(N)=O)sc2n1` [Example 270], the IC50 against V600E mutant B-RAF lay in the range of 0.1 to 10 µM; in the data set on pMEK1/2 in A375 cells it was 20 to 30 µM; in the data set on A375 cells, 0.1 to 10 µM.
With `CC(C)Cc1nc(-c2ccc(Cl)c(Cl)c2)c2c(N)c(C(N)=O)sc2n1` [Example 271], the IC50 on V600E mutant B-RAF fell in the range of 0.1 to 10 µM; with pMEK1/2 in A375 cells, 30 to 60 µM; in the data set with A375 cells, 10 to 20 µM.
The matching figures for `CC(C)[C@H](CO)Nc1nc(-c2ccc(Cl)c(Cl)c2)c2c(N)c(C(N)=O)sc2n1` [Example 273]: 0.1 to 10 µM, 0.1 to 10 µM and 10 to 20 µM.
The matching figures for `Cc1ccc(-c2nc(NC(C)(C)CO)nc3sc(C(N)=O)c(N)c23)cc1O` [Example 274]: 0.1 to 10 µM, 0.1 to 10 µM and 0.1 to 10 µM.
The matching figures for `COc1cncc(-c2ncnc3sc(C(N)=O)c(N)c23)c1` [Example 275]: 0.1 to 10 µM, 10 to 20 µM and 10 to 20 µM.
With `COc1cncc(-c2nc(C)nc3sc(C(N)=O)c(N)c23)c1` [Example 276], the IC50 at V600E mutant B-RAF is 0.1 to 10 µM; in the data set on pMEK1/2 in A375 cells it was above 60 µM; in the data set on A375 cells, 10 to 20 µM.
`NC(=O)c1sc2ncnc(-c3cc(O)cc(Cl)c3)c2c1N` [Example 280]: the IC50 against V600E mutant B-RAF, in the data set on pMEK1/2 in A375 cells and in the data set on A375 cells was 0.1 to 10 µM in each case.
In the case of `CC(C)(CN)Nc1nc(-c2cccc(NC(=O)Nc3ccc(C(F)(F)F)cc3)c2)c2c(N)c(C(N)=O)sc2n1` [Example 282], the IC50 at V600E mutant B-RAF is 0.1 to 10 µM; in the data set on pMEK1/2 in A375 cells, 10 to 20 µM; with A375 cells it was 10 to 20 µM.
Regarding `NC(=O)c1sc2ncnc(-c3cccc(NC(=O)Cc4ccccc4)c3)c2c1N` [Example 291], the values for the IC50 against V600E mutant B-RAF, in the data set on pMEK1/2 in A375 cells and with A375 cells were 0.1 to 10 µM, 0.1 to 10 µM and 10 to 20 µM, respectively.
In the case of `NC(=O)c1sc2ncnc(-c3cccc(NC(=O)Nc4ccncc4)c3)c2c1N` [Example 292], the IC50 is 0.1 to 10 µM at V600E mutant B-RAF, above 60 µM in the data set with pMEK1/2 in A375 cells and 10 to 20 µM in the data set on A375 cells.
As to `NC(=O)c1sc2ncnc(-c3cccc(NC(=O)Nc4cccc(C(F)(F)F)c4)c3)c2c1N` [Example 295], the IC50 against V600E mutant B-RAF, with pMEK1/2 in A375 cells and in the data set with A375 cells was 0.1 to 10 µM in each case.
In the case of `NC(=O)c1sc2ncnc(-c3cccc(NC(=O)Nc4ccccc4C(F)(F)F)c3)c2c1N` [Example 296], the IC50 against V600E mutant B-RAF was in the range of 0.1 to 10 µM; in the data set with pMEK1/2 in A375 cells, 30 to 60 µM; in the data set with A375 cells it was 10 to 20 µM.

Broadly, the melting point is the temperature, or range, at which the solid turns liquid. A word on the IC50: it is the concentration needed to halve the response being measured.
